Patent publication US4433154A, “Bis(carboxamide) derivatives” (Shionogi & Company, Limited, priority 1981, dated 1984)

biological target: T1, histamine H2 receptor (Cavia porcellus, UniProt P47747); assay: Histamine H2-blocking effect in enucleated guinea pig atrium (inhibition of histamine-increased pulse); assay type: cell-based; conditions: in vitro; enucleated guinea pig atrium pretreated with drug; negative logarithm of antagonist dose shifting histamine dose-response curve corresponding to doubling of histamine concentration; read-out: pA2 (converted)
T1 construct: enucleated atrium of a guinea pig; from tissue; host or cells: guinea pig atrium
Description: In the table 10, the symbol pA2 indicates the degree of pulse inhibition of the compounds (I) in the present invention in the enucleated atrium of a guinea pig. The assigned number of compounds in the table conforms to the number of the examples.
(Note) PA2 is an in vitro indicator of histamine H2 -blocking effect. […] The result was shown by negative logarithms of the dose of antagonist which is required to shift the dose-response curve of histamine in parallel to the side corresponding to a doubling of the concentration of histamine [Ariens, Molecular Pharmacology, vol./, Academic Press, New York (1964)].

T1 sequence (P47747 whole entry): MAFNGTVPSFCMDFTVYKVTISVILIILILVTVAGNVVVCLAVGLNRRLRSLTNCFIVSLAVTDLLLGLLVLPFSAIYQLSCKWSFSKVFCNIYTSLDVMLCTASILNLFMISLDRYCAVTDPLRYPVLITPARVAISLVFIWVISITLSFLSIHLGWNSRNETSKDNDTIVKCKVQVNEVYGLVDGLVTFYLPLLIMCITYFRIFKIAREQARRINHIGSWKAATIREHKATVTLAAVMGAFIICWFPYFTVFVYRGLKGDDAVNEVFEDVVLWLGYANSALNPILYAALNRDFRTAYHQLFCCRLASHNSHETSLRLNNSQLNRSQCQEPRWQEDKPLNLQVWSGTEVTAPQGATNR

SMILES | Kb [µM]
O=C(/C=C/C(=O)NCCCOc1cccc(CN2CCCC2)c1)NCCCOc1cccc(CN2CCCC2)c1 [Example 10, N,N'-bis{3-[3-(1-pyrrolidinylmethyl)phenoxy]propyl}fumaramide] | 0.0537
O=C(NCCCOc1cccc(CN2CCCC2)c1)c1ccc(C(=O)NCCCOc2cccc(CN3CCCC3)c2)cc1 [Example 11] | 0.204
O=C(CSCC(=O)NCCCOc1cccc(CN2CCCC2)c1)NCCCOc1cccc(CN2CCCC2)c1 [Example 12, N,N'-bis{3-[3-(1-pyrrolidinylmethyl)phenoxy]propyl}thiodiglycoldamide] | 0.0661
O=C(NCCCOc1cccc(CN2CCCC2)c1)c1cccc(C(=O)NCCCOc2cccc(CN3CCCC3)c2)c1 [Example 14] | 0.0603
